Experimental data from patent US20260137671A1, “PDK4 as a Cell-Aging Intervention Target and Its Use in Chemotherapy and Anticancer” (Shanghai Institute of Nutrition and Health, Chinese Academy …, priority 2022, published 2026).

Experiments:
[1] = test system: MDA-MB-231 breast cancer cells xenografted together with HBF1203 breast stromal cells; test: MDA-MB-231/HBF1203 xenograft, tumor end volume after chemotherapy and/or PDK4-IN; type: in vivo, SCID mice; conditions: PDK4-IN 10.0 mg/kg combined with DOX 1.0 mg/kg i.p.
Method: All experimental mouse experiments were carried out in strict accordance with the relevant regulations of the Institutional Animal Care and Use Committee (IACUC), Shanghai Institutes for Biological Sciences, Chinese Academy of Sciences. Immuno-deficient mice ICR SCID mice (body weight about 25 g) aged about 6 weeks were used for animal experiments related to the present disclosure. Stromal cells PSC27 and epithelial cells were mixed at a ratio of 1:4, and each graft contained 1.25×10^6 cells for tissue remodeling. The xenograft tumors were implanted into mice by subcutaneous transplantation, and the animals were euthanized 8 weeks after the end of the transplantation surgery. Tumor volume was calculated according to the following formula: V=(π/6)×(([…])/2)^3 (V, volume; 1, length; w, width).
For pre-clinical chemotherapeutic studies, mice received subcutaneous implantation were given standard laboratory diets. […] The time points were on the first day of the third, fifth and seventh weeks, with a total of 3 cycles of treatment, and each cycle lasted for 2 weeks. After the course of treatment, mouse […] were collected for tumor measurement and histological analysis. […] In order to cause systemic expression of SASP factors induced by chemotherapy, MIT was administered to mice through intravenous infusion according to the above steps and sequence, but the dose was reduced to 0.1 mg/kg body weight/each time (the cumulative dose of MIT received in the whole course of treatment was 0.3 mg/kg body weight) to reduce drug-related toxicity. The chemotherapy experiment ended at the end of the 8th week, and the mice were dissected immediately after sacrifice, and the xenograft tumors were collected and used for pathological system analysis.
To assess the in vivo effects of chemotherapeutic drugs and/or PDK4-IN treatment in different tumor types, the inventors subsequently generated xenografts composed of breast cancer cell line MDA-MB-231 and breast stromal cell line HBF1203 to replicate the preclinical intervention observed in prostate cancer xenografts.

[2] = test system: mice implanted with recombinant tissues; test: Survival of tumor-bearing mice in time-extended preclinical cohort (bulky disease, size >2,000 mm^3); type: in vivo; conditions: PDK4-IN treatment alone versus vehicle
Description: FIG. 74. Curve of bulky DFS plotted against survival time of implantation with recombinant tissues in mice until animal death attributed to advanced bulky disease development. MS, median survival. P values calculated by two-sided log-rank (Mantel-Cox) tests.
Next, the inventors assessed tumor progression consequence by comparing the survival rate of different animal groups in a time-extended preclinical cohort. During tumor surveillance, bulky disease was considered once the tumor burden became prominent (size >2,000 mm^3).

[3] = test system: senescent human stromal cells (PSC27); test: Seahorse XF24 metabolic profiling of senescent stromal cells; type: cell-based; set-up: ATP production / basal respiration / maximal respiration: dose or concentration left out as unconfirmed
Method: FIG. 26. OCR of stromal cells was measured using an XF24 Extracellular Flux Analyzer. In simple, 1.5 μM oligomycin, 0.5 μM FCCP and 0.5 μM Rot/Ant were injected sequentially in order into each well. The glycolysis rate was calculated as the difference between the maximum rate measured before injection and the last rate measured before glucose injection. All Seahorse data were normalized to cell numbers, with all metabolic parameters automatically calculated by WAVE software equipped in the Seahorse. OCR, oxygen consumption rate. Oligo, oligomycin. FCCP, carbonyl cyanide 4-(trifluoromethoxy) phenylhydrazone. Rot, rotenone. Ant, antimycin. […]
After 6 hours of drug treatment, the cells were simply washed 3 times with PBS, left in the culture medium for 7-˜10 days, and then the subsequent experiments were performed.
Next, the inventors measured the levels of extracellular fluids. […] Among them, HK2 and LDHA are glycolysis-related factors, whereas IDH2, IDH3, OGDH and CS are TCA cycle-involving enzymes. As overexpression of PDK4 per se in normal cells neither caused or abrogated senescence, nor affected the SASP (FIG. 38), the inventors reasoned that senescent cell metabolism was correlated with and likely underpinned by expression of key factors involved in glucose consumption and linked with production of pyruvate, lactate and multiple other metabolites.

[4] = test system: tumor tissues of mice (PC3/PSC27 xenografts); test: In vivo cellular senescence and SASP expression in xenograft tumors (LCM transcripts, SA-β-Gal staining); set-up: species or system SCID mice
Description: (§1) FIG. 66. Transcript assessment of several canonical SASP factors expressed in stromal cells isolated from tumors in SCID mice. LCM isolation, total RNA preparation and expression assays on tissues from animals with simultaneously implanted stromal cells and cancer cells. Note that the group measured as of the lowest value was used as normalization baseline per factor.
as §1, with “67.” for “66.”, “individual” for “several”, “factors (AREG), aging markers (p16/p21) and PDK4” for “factors”
FIG. 68. Representative IHC images of SA-β-Gal staining chromatograms from tissues isolated from animals subjected to placebo or drug treatments. Scale bar, 100 μm. Right, Comparative statistical analysis of SA-β-Gal staining for tissues in mice mentioned above.
Senescence-associated β-galactosidase (SA-β-Gal) staining was performed following a previously reported procedure (Debacq-Chainiaux et al., 2009). Briefly, cells in culture dishes were washed with PBS and fixed at room temperature. Cells were fixed in 2% formaldehyde and 0.2% glutaraldehyde for 3 minutes. SA-β-Gal was used for staining with freshly prepared staining solution overnight at 37° C. Images were taken on the next day and the percentage of positive cells per unit area was calculated.
For pre-clinical chemotherapeutic studies, mice received subcutaneous implantation were given standard laboratory diets. […] The time points were on the first day of the third, fifth and seventh weeks, with a total of 3 cycles of treatment, and each cycle lasted for 2 weeks. After the course of treatment, mouse […] were collected for tumor measurement and histological analysis. […]

[5] = test system: cancer cells in tumors (PC3/PSC27 xenografts); test: DNA damage and apoptosis in tumors by IHC (γ-H2AX, cleaved caspase 3); type: in vivo, SCID mice; conditions: for DNA damage and apoptosis in cancer cells: tumors dissected 7 days after initiation of treatment
Description: FIG. 69. Statistical evaluating values of DNA-damaged cells and apoptotic cells in analyzed tumor specimens, represented as a percentage of cells positively stained by IHC with antibodies against γ-H2AX or caspase 3 (cleaved).
FIG. 70. Representative IHC images of caspase 3 (cleaved) in tumors at the end of therapeutic regimens. Biopsies of placebo-treated animals served as negative controls for drug-treated mice. Scale bar, 100 μm.
Considering the primary in vivo expressive results with MIT and/or PDK4-IN treatment, the inventors next asked how pharmacologically targeting PDK4 could enhance the therapeutic response of tumors. To disclose the possible mechanism(s), the inventors chose to dissect tumors from animals 7 days after initiation of treatment, a timepoint right before the development of resistant colonies.

[6] = senescence-associated change, PDK4-IN treated

O=C1c2ccccc2C(=O)c2c1cccc2-c1cnn(C2CCNCC2)c1 [PDK4-IN]
further decline of tumor volume on the basis of doxorubicin (DOX) [1]: 39.8%
tumor size reduction in total compared to the control group [1]: 69.5%
survival benefit as single agent [2]: only marginal survival advantage
H^+ (proton) leak [3, 6]: reversed changes
lactate production [3, 6]: reversed changes
non-mitochondrial oxygen consumption [3, 6]: reversed changes
pH fluctuation [3, 6]: reversed changes
ATP production ([3]; senescent cells, PDK4-IN-1): further promoted
basal respiration ([3]; senescent cells, PDK4-IN-1): further promoted
maximal respiration ([3]; senescent cells, PDK4-IN-1): further promoted
SA-β-gal positivity in tumor tissues ([4]; histological staining, FIG. 68): neither induced senescence nor inhibited senescence
cellular senescence / SASP factor and senescence marker expression in vivo ([4]; single agent or in combination with MIT, FIGS. 66-67): neither induced nor affected cellular senescence
caspase 3 cleavage (IHC) ([5]; PDK4-IN added to MIT): further enhanced
DNA damage and apoptosis in cancer cells ([5]; PDK4-IN upon combination with MIT): prominent efficacy in enhancing these therapeutic indices
DNA damage and apoptosis in cancer cells ([5]; single agent): neither caused typical DDR nor induced cell apoptosis
